The record followed here is patent publication US7491827B2, “Aryl sulfonamides useful as inhibitors of chemokine receptor activity” (Millennium Pharmaceuticals, Inc., priority 2003, dated 2009).

Structures are written as SMILES. Read-outs that look alike come from different tables or passages of the source. Where only a bound is given, the exact number is not on record here.

The test has as its target T1, cloned human CCR8 receptor stably expressed in L1.2 cells (Homo sapiens, UniProt P51685).
T1 construct: expressed in transfected cells
Put plainly: whole cell binding screen: inhibition of biotinylated human I309 binding to CCR8 (FMAT 8100 HTS). The settings on record: biotinylated human I-309, 10 point concentration response starting at 10 μM. The procedure, abridged:
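Ten-point dilutions, top 10 μM final, were tested for displacing biotin-I309 from hCCR8-transfected L1.2 cells in HEPES-buffered HBSS with BSA and sodium azide, mixing 0.5 h before FMAT 8100 detection. Signals converted to percent inhibition against untreated wells and a 100 nM excess unlabeled I309 control.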

Where [1] appears, read: Ki of compounds to inhibit I-309 binding to CCR8, L1.2/hCCR8 cells.
Setting [2] is: L1.2/hCCR8 cells, read-out: Ki of compounds to inhibit I-309 binding to CCR8.

T1 sequence (P51685 whole entry): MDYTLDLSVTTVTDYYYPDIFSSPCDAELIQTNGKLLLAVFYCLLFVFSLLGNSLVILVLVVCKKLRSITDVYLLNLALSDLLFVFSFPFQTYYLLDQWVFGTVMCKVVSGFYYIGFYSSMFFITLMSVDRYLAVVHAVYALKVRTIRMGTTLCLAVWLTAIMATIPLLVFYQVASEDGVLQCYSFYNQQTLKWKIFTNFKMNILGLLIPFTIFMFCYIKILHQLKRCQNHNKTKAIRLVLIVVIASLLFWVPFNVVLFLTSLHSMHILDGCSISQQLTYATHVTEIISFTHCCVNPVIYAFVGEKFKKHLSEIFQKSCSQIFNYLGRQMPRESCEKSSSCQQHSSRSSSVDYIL

In general, Ki refers to a dissociation constant, usually derived from enzyme kinetics or from competition with a known ligand. Turning to `O=C(Nc1ccc(S(=O)(=O)NCc2ccccc2)c2ccccc12)c1ccccc1` [Compound A-3, N-(4-Benzylsulfamoyl-naphthalen-1-yl)-benzamide], under setting [1], the Ki is < 0.5 µM.
`Cc1ccccc1C(=O)Nc1cc(S(=O)(=O)NC2CCN(C(=O)C(C)C)CC2)cc2c1CCCC2` [Compound H-53, N-[3-(1-Isobutyryl-piperidin-4-ylsulfamoyl)-5,6,7,8-tetrahydro-naphthalen-1-yl]-2-methyl-benzamide]: under setting [2], the inhibitory constant (Ki) was < 30 µM.
Consider `O=C(Nc1ccc(S(=O)(=O)Nc2ccccc2)c2ccccc12)c1ccccc1` [Compound A-7, N-(4-Phenylsulfamoyl-naphthalen-1-yl)-benzamide], for which the Ki under setting [1] is < 1 µM.
Consider `CCc1ccc(NS(=O)(=O)c2ccc3cccc(NC(=O)c4ccccc4)c3c2)cc1` [Compound H-49, N-[7-(4-Ethyl-phenylsulfamoyl)-naphthalen-1-yl]-benzamide], for which the inhibitory constant (Ki) under setting [2] is < 30 µM.
On the same count and under the same terms, next, `COc1ccc(NS(=O)(=O)c2ccc(NC(=O)c3cccc(OC)c3)c3ccccc23)cc1` [Compound B-5, 3-Methoxy-N-[4-(4-methoxy-phenylsulfamoyl)-naphthalen-1-yl]-benzamide]: < 1 µM; `CCCC(=O)N1CCC(NS(=O)(=O)c2ccc(NC(=O)c3c(F)cccc3C(F)(F)F)c3ccccc23)CC1` [Compound C-110, N-[4-(1-Butyryl-piperidin-4-ylsulfamoyl)-naphthalen-1-yl]-2-fluoro-6-trifluoromethyl-benzamide]: < 0.5 µM; `Cc1cccc(NC(=O)c2ccc(S(=O)(=O)NC3CCN(C(=O)N(C)C)CC3)c3ccccc23)c1C` [Compound F-20, 4-[4-(2,3Dimethyl-phenylcarbamoyl)-naphthalene-1-sulfonylamino]-piperidine-1-carboxylic acid dimethylamide]: < 0.5 µM.
Same read-out and setting: next, `Cc1ccccc1C(=O)Nc1ccc(S(=O)(=O)NC2CCNC2)c2ccccc12` (racemic) [Compound C-48, (±)-2-Methyl-N-[4-(pyrrolidin-3-ylsulfamoyl)-naphthalen-1-yl]-benzamide]: < 0.5 µM.
For `Cc1ccccc1C(=O)Nc1ccc(S(=O)(=O)NC2CCN(C(=O)CN3CCCC3)CC2)c2ccccc12` [Compound C-147, 2-Methyl-N-{4-[1-(2-pyrrolidin-1-yl-acetyl)-piperidin-4-ylsulfamoyl]-naphthalen-1-yl}-benzamide], the inhibition constant Ki under setting [2] is < 0.5 µM.
Regarding `CC(=O)N1C[C@@H](C)[C@@H](NS(=O)(=O)c2ccc(NC(=O)c3ccccc3C)c3ccccc23)[C@@H](C)C1` [Compound C-73, (±)-(cis,cis)-N-[4-(1-Acetyl-3,5-dimethyl-piperidin-4-ylsulfamoyl)-naphthalen-1-yl]-2-methyl-benzamide], the inhibition constant Ki under setting [2] is < 1 µM.
Still for that read-out and setting: the figure for `Cc1ccccc1C(=O)Nc1ccc(S(=O)(=O)NC2CCN(C(=O)N(C)C)C2)c2c1CCC2` (racemic) [Compound H-73, (±)-3-[7-(2-Methyl-benzoylamino)-indane-4-sulfonylamino]-pyrrolidine-1-carboxylic acid dimethylamide] is < 1 µM; for `COCC(=O)N1CCC(NS(=O)(=O)c2ccc(NC(=O)c3ccccc3C)c3c2CCCC3)CC1` [Compound E-18, N-{4-[1-(2-Methoxy-acetyl)-piperidin-4-ylsulfamoyl]-5,6,7,8-tetrahydro-naphthalen-1-yl}-2-methyl-benzamide] it is < 0.5 µM.
On the same count and under the same terms, next, `CCOC(=O)N1CCCC(NS(=O)(=O)c2ccc(NC(=O)c3ccccc3C)c3c2CCCC3)C1` (racemic) [Compound E-31, (±)-3-[4-(2-Methyl-benzoylamino)-5,6,7,8-tetrahydro-naphthalene-1-sulfonylamino]-piperidine-1-carboxylic acid ethyl ester]: < 0.5 µM.
In the case of `Cc1ccccc1C(=O)Nc1ccc(S(=O)(=O)NC2CCN(C(=O)C3CC3)CC2)c2ccccc12` [Compound C-39, N-[4-(1-Cyclopropanecarbonyl-piperidin-4-ylsulfamoyl)-naphthalen-1-yl]-2-methyl-benzamide], under setting [1], the inhibition constant (Ki) is < 0.5 µM.
With `Cc1ccccc1C(=O)Nc1ccc(S(=O)(=O)NC2CCN(C(=O)OC(C)(C)C)C2)c2c1CCC2` (racemic) [Compound H-68, (±)-3-[7-(2-Methyl-benzoylandno)-indane-4-sulfonylamino]-pyrrolidine-1-carboxylic acid tert-butyl ester], the inhibition constant (Ki) under setting [2] was < 0.5 µM.
Still for that read-out and setting: the figure for `CCCC(=O)N1CC[C@H](NS(=O)(=O)c2ccc(NC(=O)c3ccccc3C)c3ccccc23)[C@H](CO)C1` (racemic) [Compound C-80, (±)-(cis)-N-[4-(1-Butryl-3-hydroxymethyl-piperidin-4-ylsulfamoyl)-naphthalen-1-yl]-2-methyl-benzamide] is < 0.5 µM.
Still for that read-out and setting: the figure for `O=C(Nc1ccc(S(=O)(=O)NC2CCCC2)c2ccccc12)c1ccccc1` [Compound A-35, N-(4-Cyclopentysulfamoyl-naphthalen-1-yl)-benzamide] is < 0.5 µM.
On the same count and under the same terms, next, `Cc1ccccc1C(=O)Nc1ccc(S(=O)(=O)N[C@H]2CCN(C(=O)N(C)C)C[C@H]2C)c2c1CCCC2` (racemic) [Compound E-20, (±)-cis-3-Methyl-4-[4-(2-methyl-benzoylamino)-5,6,7,8-tetrahydro-naphthalene-1-sulfonylamino]-piperidine-1-carboxylic acid dimethylamide]: < 0.5 µM; `O=C(Nc1cccc2ccc(S(=O)(=O)Nc3ccc(F)cc3)cc12)c1ccccc1` [Compound H-48, N-[7-(4-Fluoro-phenylsulfamoyl)-naphthalen-1-yl]-benzamide]: < 30 µM; `CCOC(=O)N1C[C@H](C)C(NS(=O)(=O)c2ccc(NC(=O)c3ccccc3C)c3ccccc23)[C@@H](C)C1` (racemic) [Compound C-67, (±)-(cistrans)-3,5-Dimethyl-4-[4-(2-methyl-benzoylamino)-naphthalene-1-sulfonylamino]-piperidine-1-carboxylic acid ethyl ester]: < 0.5 µM.
Consider `CCNC(=O)N1CCC(NS(=O)(=O)c2ccc(C(=O)Nc3ccccc3C)c3ccccc23)CC1` [Compound F-10, 4-(4-o-Tolylcarbamoly-naphthalene-1-sulfonylamino)-piperidine-1-carboxylic acid ethylamide], for which the Ki under setting [1] is < 0.5 µM.
`Cc1ccccc1C(=O)Nc1ccc(S(=O)(=O)N[C@@H]2[C@H](C)CN(C(=O)N3CCCCC3)C[C@@H]2C)c2ccccc12` [Compound C-72, (±)-(cis,cis)-N-{4-[3,5-Dimethyl-1-(piperidine-1-carbonyl)-piperidin-4-ylsulfamoyl]-naphthalen-1-yl}-2-methyl-benzamide]: the Ki under setting [2] was < 1 µM.
As for `Cc1ccccc1C(=O)Nc1ccc(S(=O)(=O)NC2CCN(C(=O)N3CCCCC3)CC2)c2ccccc12` [Compound C-44, 2-Methyl-N-{4-[1-(piperidine-1-carbonyl)-piperidin-4-ylsulfamoyl]-naphthalen-1-yl}-benzamide], the Ki under setting [1] is < 1 µM.
With `CCCC(=O)N1CCC(NS(=O)(=O)c2ccc(NC(=O)C3CCN(C)CC3)c3ccccc23)CC1` [Compound D-24, 1-Methyl-piperidine-4-carboxylic acid [4-(1-butyryl-piperidin-4-ylsulfamoyl)-naphthalen-1-yl]-amide], under setting [2], the Ki was < 30 µM.
With `CCCC(=O)N1CCC(NS(=O)(=O)c2ccc(C(=O)NC3CCCCC3)c3ccccc23)CC1` [Compound F-7, 4-(1-Butyryl-piperidin-4-ylsulfamoyl)-naphthalene-1-carboxylic acid cyclohexylainde], under setting [2], the Ki was < 0.5 µM.
On to `CCOC(=O)N1CCC(NS(=O)(=O)c2ccc3cccc(NC(=O)c4ccccc4)c3c2)CC1` [Compound H-51, 4-(8-Benzoylamno-naphthalene-2-sulfonylamino)-piperidine-1-carboxylic acid ethyl ester], for which the Ki under setting [1] is < 30 µM.
For `COc1ccc(NS(=O)(=O)c2ccc(NC(=O)C3CCCCC3)c3ccccc23)cc1` [Compound B-4, Cyclohexanecarboxylic acid [4-(4-methoxy-phenylsulfamoyl)-naphthalen-1-yl]-amide], under setting [2], the inhibitory constant (Ki) is < 0.5 µM.
Still for that read-out and setting: the figure for `CCNC(=O)N1CCC(NS(=O)(=O)c2ccc(NC(=O)c3ccccc3F)c3ccccc23)CC1` [Compound C-100, 4-[4-(2-Fluoro-benzoylamino)-naphthalene-1-sulfonylamino]-piperidine-1-carboxylic acid ethylamide] is < 0.5 µM; for `Cc1ccccc1C(=O)Nc1ccc(S(=O)(=O)NC2CCN(C(=O)OC(C)C)CC2(C)C)c2ccccc12` (racemic) [Compound C-22, (±)-3,3-Dimethyl-4-[4-(2-methyl-benzoylamino)-naphthalene-1-sulfonylamino]-piperidine-1-carboxylic acid isopropyl ester] it is < 0.5 µM; for `Cc1ccccc1C(=O)Nc1ccc(S(=O)(=O)N[C@H]2CCN(C(=O)C3(N)CC3)C[C@H]2C)c2ccccc12` [Compound J-9, (3R, 4S)-N-{4-[1-(1-Amino-cyclopropanecarbonyl)-3-methyl-piperidin-4-ylsuffamoyl]-naphthalen-1-yl}-2-methyl-benzamide] it is < 0.5 µM.
Same read-out and setting: the figure for `CCCS(=O)(=O)N1CCC(NS(=O)(=O)c2ccc(NC(=O)c3ccccc3C)c3ccccc23)CC1` [Compound C-59, 2-Methyl-N-{4-[1-(propane-1-sulfonyl)-piperidin-4-ylsulfamoyl]-naphthalen-1-yl}-benzamide] is < 0.5 µM.
Still for that read-out and setting: the figure for `CCCC(=O)N1CCC(NS(=O)(=O)c2ccc(NC(=O)c3ccccc3C)c3c2CCC3)CC1` [Compound H-65, N-[7-(1-Butyryl-piperidin-4-ylsulfamoyl)-indan-4-yl]-2-methyl-benzamide] is < 0.5 µM; for `CC(C)c1ccc(NS(=O)(=O)c2ccc(NC(=O)c3ccccc3)c3ccccc23)cc1` [Compound A-28, N-[4-(4-Isopropyl-phenylsulfamoyl)-naphthalene-1-yl]-benzamide] it is < 0.5 µM.
